Measurements from patent US10723699B2 (Hyundai Pharm Co., Ltd., priority 2015, dated 2020).
Like-named read-outs stand apart in the source and are kept apart here.

Molecular target: T1, G protein-coupled receptor 119 (GPR-119) (Mesocricetus auratus, UniProt A0A1U8CD06)
T1 construct: hamster-derived β-cells containing G protein-coupled receptor 119 (GPR-119), HIT-T15 cells; host or cells: HIT-T15 (hamster pancreatic β-cells)
T1 sequence (A0A1U8CD06 1-334): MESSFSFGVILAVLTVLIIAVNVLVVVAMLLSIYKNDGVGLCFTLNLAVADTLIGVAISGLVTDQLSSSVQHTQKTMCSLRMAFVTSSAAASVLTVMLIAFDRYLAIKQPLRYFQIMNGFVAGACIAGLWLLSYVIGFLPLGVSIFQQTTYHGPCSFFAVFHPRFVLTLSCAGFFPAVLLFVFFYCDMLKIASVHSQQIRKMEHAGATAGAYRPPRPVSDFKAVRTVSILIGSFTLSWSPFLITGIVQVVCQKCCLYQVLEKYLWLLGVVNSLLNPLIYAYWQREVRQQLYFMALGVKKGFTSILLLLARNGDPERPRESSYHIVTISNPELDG
Test: cAMP activity in HIT-T15 cells (cAMP dynamic kit, FRET)
Format: cell-based, hamster
Experimental: To check whether the cyclohexene derivatives according to the present invention activate cyclic adenosine monophosphate (cAMP), experiments were carried out, as follows.
The HIT-T15 cells were plated on a 96-well plate at 60,000 cells per well. On the next day of plating, the cells were treated with a varying concentration of each of the example compounds according to the present invention, and incubated at 37° C. for an hour. In this case, each of the treated compounds was used at six concentrations, ranging from 0.0032 to 10 μM, to treat the cells.
The cyclic adenosine monophosphate (cAMP) activity was measured according to the manufacturer's instruction using a cAMP dynamic kit commercially available from Cis Bio Inc. (Bedford, Mass.). The cells were lysed, and a level of cAMP was determined by a competitive immunoassay using D2-labeled cAMP and a cryptate-labeled anti-cAMP antibody. Fluorescence was read in Flex Station (Molecular Devices). […] Unlabeled cAMP in the cell lysate competed with the D2-labeled cAMP against the cryptate-labeled antibody. Since a decrease in the measured intensity of the FRET signals represents a level of cAMP in the cells, the cAMP activities of the compounds are calculated as a change in FRET signals by adjusting an amount of dimethyl sulfoxide (DMSO).

[1] = 1 hour at 37° C., six concentrations 0.0032 to 10 μM, read-out: EC50

SMILES | EC50 [1] [nM] | EC50 (Table 2, read-out: EC50 value) [nM]
CCc1cnc(N2CCC(COc3ccc(C4=CCC(C(=O)N5CCCCC5)CC4)c(F)c3)CC2)nc1 (stereo not drawn) [Example 426, (4-(4-((1-(5-ethylpyrimidin-2-yl)piperidin-4-yl)methoxy)-2-fluorophenyl)cyclohex-3-enyl)(piperidin-1-yl)methanone] | 6.7 | ≤ 50
CCc1cnc(N2CCC(COc3ccc(C4=CCC(C(=O)N(C)CCO)CC4)cc3F)CC2)nc1 (stereo not drawn) [Example 359, 4-(4-((1-(5-ethylpyrimidin-2-yl)piperidin-4-yl)methoxy)-3-fluorophenyl)-N-(2-hydroxyethyl)-N-methylcyclohex-3-enecarboxamide] | 14 | ≤ 50
CON=C1CCN(C(=O)C2CC=C(c3ccc(OCC4CCN(C(=O)OC(C)(C)C)CC4)cc3)CC2)CC1 (stereo not drawn) [Example 270, tert-butyl 4-((4-(4-(4-(methoxyimino)piperidine-1-carbonyl)cyclohex-1-enyl)phenoxy)methyl)piperidine-1-carboxylate] |  | ≤ 50
CC(C)(C)OC(=O)N1CCC(COc2ccc(C3=CCC(C(=O)N4CCCCC4)CC3)nc2)CC1 (stereo not drawn) [Example 311, tert-butyl 4-((6-(4-(piperidine-1-carbonyl)cyclohex-1-enyl)pyridin-3-yloxy)methyl)piperidine-1-carboxylate] | 79 | 
CCc1cnc(N2CCC(COc3ccc(C4=CCC(C(=O)N(C)CCCO)CC4)cc3F)CC2)nc1 (stereo not drawn) [Example 376, 4-(4-((1-(5-ethylpyrimidin-2-yl)piperidin-4-yl)methoxy)-3-fluorophenyl)-N-(3-hydroxypropyl)-N-methylcyclohex-3-enecarboxamide] | 10.5 | ≤ 50
CC(C)(C)OC(=O)N1CCC(COc2ccc(C3=CCC(C(=O)N4CCC(O)CC4)CC3)nc2)CC1 (stereo not drawn) [Example 310, tert-butyl 4-((6-(4-(4-hydroxypiperidine-1-carbonyl)cyclohex-1-enyl)pyridin-3-yloxy)methyl)piperidine-1-carboxylate] | 33 | ≤ 50
CC(C)c1noc(N2CCC(COc3ccc(C4=CCC(C(=O)N(CCO)CCO)CC4)cc3F)CC2)n1 (stereo not drawn) [Example 372, 4-(3-fluoro-4-((1-(3-isopropyl-1,2,4-oxadiazol-5-yl)piperidin-4-yl)methoxy)phenyl)-N,N-bis(2-hydroxyethyl)cyclohex-3-enecarboxamide] | 46 | ≤ 50
CCc1cnc(N2CCC(COc3ccc(C4=CCC(C(=O)N5CCCCC5)CC4)cc3C(F)(F)F)CC2)nc1 (stereo not drawn) [Example 375, (4-(4-((1-(5-ethylpyrimidin-2-yl)piperidin-4-yl)methoxy)-3-(trifluoromethyl)phenyl)cyclohex-3-enyl)(piperidin-1-yl)methanone] | 110 | 
CC(C)c1noc(N2CCC(COc3ccc(C4=CCC(C(=O)N5CCCC5)CC4)cn3)CC2)n1 (stereo not drawn) [Example 315, (4-(6-((1-(3-isopropyl-1,2,4-oxadiazol-5-yl)piperidin-4-yl)methoxy)pyridin-3-yl)cyclohex-3-enyl)(pyrrolidin-1-yl)methanone] | 68 | 
CCc1cnc(N2CCC(COc3ccc(C4=CCC(C(=O)N5CC(F)(F)C(F)(F)C5)CC4)c(F)c3)CC2)nc1 (single isomer, unassigned; (+)) [Example 464, (+)-(4-(4-((1-(5-ethylpyrimidin-2-yl)piperidin-4-yl)methoxy)-2-fluorophenyl)cyclohex-3-enyl)(3,3,4,4-tetrafluoropyrrolidin-1-yl)methanone] | 13 | ≤ 50
CC(C)c1noc(N2CCC(COc3ccc(C4=CCC(C(=O)N5CCC(CO)CC5)CC4)cc3F)CC2)n1 (stereo not drawn) [Example 333, (4-(3-fluoro-4-((1-(3-isopropyl-1,2,4-oxadiazol-5-yl)piperidin-4-yl)methoxy)phenyl)cyclohex-3-enyl)(4-(hydroxymethyl)piperidin-1-yl)methanone] | 30 | ≤ 50
CCc1cnc(N2CCC(COc3ccc(C4=CCC(C(=O)NCC(C)(C)CO)CC4)cc3F)CC2)nc1 (stereo not drawn) [Example 378, 4-(4-((1-(5-ethylpyrimidin-2-yl)piperidin-4-yl)methoxy)-3-fluorophenyl)-N-(3-hydroxy-2,2-dimethylpropyl)cyclohex-3-enecarboxamide] | 20 | ≤ 50
CCc1cnc(N2CCC(COc3ccc(C4=CCC(C(=O)N5CCC(C(F)(F)F)CC5)CC4)cc3F)CC2)nc1 (stereo not drawn) [Example 456, (4-(4-((1-(5-ethylpyrimidin-2-yl)piperidin-4-yl)methoxy)-3-fluorophenyl)cyclohex-3-enyl)(4-(trifluoromethyl)piperidin-1-yl)methanone] | 18 | ≤ 50
CCc1cnc(N2CCC(COc3ccc(C4=CCC(C(=O)N5CCOCC5)CC4)cn3)CC2)nc1 (stereo not drawn) [Example 351, (4-(6-((1-(5-ethylpyrimidin-2-yl)piperidin-4-yl)methoxy)pyridin-3-yl)cyclohex-3-enyl)(morpholino)methanone] | 41 | ≤ 50
CCc1cnc(N2CCC(COc3ccc(C4=CCC(C(=O)N(CC)CCO)CC4)cc3F)CC2)nc1 (stereo not drawn) [Example 360, N-ethyl-4-(4-((1-(5-ethylpyrimidin-2-yl)piperidin-4-yl)methoxy)-3-fluorophenyl)-N-(2-hydroxyethyl)cyclohex-3-enecarboxamide] | 8.8 | ≤ 50
CCc1cnc(N2CCC(COc3ccc(C4=CCC(C(=O)N5CCC(CCO)CC5)CC4)cc3F)CC2)nc1 (single isomer, unassigned; (-)) [Example 430, (−)-(4-(4-((1-(5-ethylpyrimidin-2-yl)piperidin-4-yl)methoxy)-3-fluorophenyl)cyclohex-3-enyl)(4-(2-hydroxyethyl)piperidin-1-yl)methanone] | 9 | ≤ 50
CCc1cnc(N2CCC(COc3ccc(C4=CCC(C(=O)N5CCC(CO)CC5)CC4)cn3)CC2)nc1 (stereo not drawn) [Example 354, (4-(6-((1-(5-ethylpyrimidin-2-yl)piperidin-4-yl)methoxy)pyridin-3-yl)cyclohex-3-enyl)(4-(hydroxymethyl)piperidin-1-yl)methanone] | 22 | ≤ 50
CCc1cnc(N2CCC(COc3ccc(C4=CCC(C(=O)N5CCCCC5)CC4)cn3)CC2)nc1 (stereo not drawn) [Example 350, (4-(6-((1-(5-ethylpyrimidin-2-yl)piperidin-4-yl)methoxy)pyridin-3-yl)cyclohex-3-enyl)(piperidin-1-yl)methanone] | 52 | 
CCN1CCN(C(=O)C2CC=C(c3ccc(OCC4CCN(c5nc(C(C)C)no5)CC4)c(F)c3)CC2)CC1 (stereo not drawn) [Example 346, (4-ethylpiperazin-1-yl)(4-(3-fluoro-4-((1-(3-isopropyl-1,2,4-oxadiazol-5-yl)piperidin-4-yl)methoxy)phenyl)cyclohex-3-enyl)methanone] | 100 | 
CCc1cnc(N2CCC(COc3ccc(C4=CCC(C(=O)N5CCC(F)(F)CC5)CC4)c(F)c3)CC2)nc1 (stereo not drawn) [Example 453, (4,4-difluoropiperidin-1-yl)(4-(4-((1-(5-ethylpyrimidin-2-yl)piperidin-4-yl)methoxy)-2-fluorophenyl)cyclohex-3-enyl)methanone] | 12 | ≤ 50
CCc1cnc(N2CCC(COc3ccc(C4=CCC(C(=O)N(CC)CCO)CC4)c(F)c3)CC2)nc1 (stereo not drawn) [Example 438, N-ethyl-4-(4-((1-(5-ethylpyrimidin-2-yl)piperidin-4-yl)methoxy)-2-fluorophenyl)-N-(2-hydroxyethyl)cyclohex-3-enecarboxamide] | 23 | ≤ 50
CCc1cnc(N2CCC(COc3ccc(C4=CCC(C(=O)N5CCC(N6CCCC6)CC5)CC4)cc3F)CC2)nc1 (stereo not drawn) [Example 298, (4-(4-((1-(5-ethylpyrimidin-2-yl)piperidin-4-yl)methoxy)-3-fluorophenyl)cyclohex-3-enyl)(4-(pyrrolidin-1-yl)piperidin-1-yl)methanone] | 150 | 
CCc1cnc(N2CCC(COc3ccc(C4=CCC(C(=O)N5CCN(C(=O)NC(C)C)CC5)CC4)cc3)CC2)nc1 (stereo not drawn) [Example 413, 4-(4-(4-((1-(5-ethylpyrimidin-2-yl)piperidin-4-yl)methoxy)phenyl)cyclohex-3-enecarbonyl)-N-isopropylpiperazine-1-carboxamide] | 25 | ≤ 50
CCc1cnc(N2CCC(COc3ccc(C4=CCC(C(=O)N5CCCC5)CC4)cn3)CC2)nc1 (stereo not drawn) [Example 349, (4-(6-((1-(5-ethylpyrimidin-2-yl)piperidin-4-yl)methoxy)pyridin-3-yl)cyclohex-3-enyl)(pyrrolidin-1-yl)methanone] | 27 | ≤ 50
CCc1cnc(N2CCC(COc3ccc(C4=CCC(C(=O)N5CCN(C)CC5)CC4)cc3F)CC2)nc1 (stereo not drawn) [Example 384, (4-(4-((1-(5-ethylpyrimidin-2-yl)piperidin-4-yl)methoxy)-3-fluorophenyl)cyclohex-3-enyl)(4-methylpiperazin-1-yl)methanone] | 100 | 
